Target: S. aureus DNA gyrase (Staphylococcus aureus, UniProt P0A0K8+P20831)
Experiment: DNA gyrase supercoiling inhibition assay
Assay type: biochemical
Conditions: read-out: IC50(μM) (mean ± SEM) / S. aureusDNA gyrase supercoiling

Row | IC50 | Compound
1 | 11.7 ± 0.47 µM | CS(=O)(=O)N1SCC(=O)c2c1sc1c2SC2N(c3ccccc3)C(=O)c3ccccc3N12 (centres unmarked) [compound 4, 11-(methylsulfonyl)-6-phenyl-6,6a-dihydro-5H,9H-[1,2]thiazino[4″,3”:4′,5′]thieno[2′,3′:4,5]thiazolo[3,2-a]quinazoline-5,8(11H)-dione]
2 | 7.13 ± 0.28 µM | CCOC(=O)c1c(-n2cnnn2)sc2c1SC1N(c3ccccc3)C(=O)c3ccccc3N21 (centres unmarked) [compound 5, Ethyl 5-Oxo-6-phenyl-9-(1H-tetrazol-1-yl)-6,6a-dihydro-5H-thieno[2′,3′:4,5]thiazolo[3,2-a]quinazoline-8-carboxylate]

Reference: publication PMC11904721 (ACS Omega, 2025)
